Reference: US20110166123A1, “NOVEL COMPOSITIONS AND METHODS OF USE” (priority 2008, published 2011)
pEC50: −log10 of the molar value.

What follows are compounds tested on human immunodeficiency virus type 1 (HIV-1) (assay: microbe, parasite or virus in culture). Settings: Human immunodeficiency virus 1, HeLa, 48 h, HIV-1 luciferase reporter, HeLa cells, 48 hours after infection.
Assay type: cell-based
For `CC(C)[C@@H](CO)n1cc(C(=O)O)c(=O)c2cc(Cc3cccc(Cl)c3F)nnc21` [Example 6, 3-(3-chloro-2-fluorobenzyl)-8-(1-hydroxy-3-methylbutan-2-yl)-5-oxo-5,8-dihydropyrido[2,3-c]pyridazine-6-carboxylic acid], the pEC50 was less than 7.00. For `COc1cc2c(cc1NCc1ccc(F)cc1F)c(=O)c(C(=O)O)cn2[C@H](CO)C(C)C` [Example 21D, (S)-6-(2,4-difluorobenzylamino)-1-(1-hydroxy-3-methylbutan-2-yl)-7-methxoy-4-oxo-1,4-dihydroquinoline-carboxylic acid], the pEC50 was 7.00 to 8.00. For `COc1cc2c(cc1OCc1cccc(Cl)c1F)c(=O)c(C(=O)O)cn2[C@H](CO)C(C)(C)C` [Example 29A, (S)-6-(3-chloro-2-fluorobenzyloxy)-1-(1-hydroxy-3,3-dimethylbutan-2-yl)-7-methoxy-4-oxo-1,4-dihydroquinoline-3-carboxylic acid], the pEC50 was less than 7.00. In the case of `COc1nc2c(cc1NCc1ccc(F)c(F)c1)c(=O)c(C(=O)O)cn2[C@H](CO)C(C)C` [Example 20N, (S)-6-(3,4-difluorobenzylamino)-1-(1-hydroxy-3-methylbutan-2-yl)-7-methoxy-4-oxo-1,4-dihydro-1,8-naphthyridine-3-carboxylic acid], the pEC50 was less than 7.00. With `CCCC(CO)n1cc(C(=O)O)c(=O)c2cc(Cc3cccc(Cl)c3F)c(OC)nc21` (stereo not drawn) [Example 1J] the pEC50 was 7.00 to 8.00. `CC(C)(C)[C@@H](CO)n1cc(C(=O)O)c(=O)c2cc(Cc3cccc(Cl)c3F)c(OCCN3CCCC3)nc21` [Example 2O] was tested, and the pEC50 was 7.00 to 8.00. For `COc1nc2c(cc1Cc1cccc(Cl)c1F)c(=O)c(C(=O)O)cn2C[C@@H](O)c1ccccc1` [Example 1R], the pEC50 was less than 7.00. With `COc1nc2c(cc1N1CCc3cc(F)ccc3C1)c(=O)c(C(=O)O)cn2[C@H](CO)C(C)C` [Example 17M] the pEC50 was less than 7.00. `Cc1cc2c(cc1NCc1ccc(F)cc1)c(=O)c(C(=O)O)cn2[C@H](CO)C(C)(C)C` [Example 25C, (S)-6-(4-fluorobenzylamino)-1-(1-hydroxy-3,3-dimethylbutan-2-yl)-7-methyl-4-oxo-1,4-dihydroquinoline-3-carboxylic acid] gave a pEC50 of 7.00 to 8.00. Work on `COc1nc2c(cc1COc1ccc(F)cc1F)c(=O)c(C(=O)O)cn2[C@H](CO)C(C)C` [Example 14B] yielded a pEC50 of less than 7.00. Compound `COc1nc2c(cc1Cc1cccc(Cl)c1F)c(=O)c(C(=O)O)cn2C[C@H](O)c1ccccc1` [Example 1Q] has a pEC50 of less than 7.00. Compound `CC(C)[C@@H](CO)n1cc(C(=O)O)c(=O)c2nc(Cc3cccc(Cl)c3F)c(O)nc21` [Example 11A, (S)-2-(3-chloro-2-fluorobenzyl)-3-hydroxy-5-(1-hydroxy-3-methylbutan-2-yl)-8-oxo-5,8-dihydropyrido[2,3-b]pyrazine-7-carboxylic acid] has a pEC50 of less than 7.00. `CC(C)[C@@H](CO)n1cc(C(=O)O)c(=O)c2cc(Cc3ccccc3F)cnc21` [Example 4B] showed a pEC50 of less than 7.00. `COc1nc2c(cc1-c1cccc(C#N)c1)c(=O)c(C(=O)O)cn2[C@H](CO)C(C)C` [Example 17F] was tested, and the pEC50 was less than 7.00. In the case of `COc1nc2c(cc1-c1cccc3ccccc13)c(=O)c(C(=O)O)cn2[C@H](CO)C(C)C` [Example 17I], the pEC50 was less than 7.00. `Cc1nc2c(cc1Cc1cccc(Cl)c1F)c(=O)c(C(=O)O)cn2[C@H](CO)C(C)(C)C` [Example 3B, 6-(3-Chloro-2-fluorobenzyl)-1-((S)-1-hydroxymethyl-2,2-dimethyl-propyl)-7-methyl-4-oxo-1,4-dihydro-1,8-naphthyridine-3-carboxylic acid] was tested, and the pEC50 was 7.00 to 8.00. Work on `COc1nc2c(cc1NCc1ccc(Cl)c(Cl)c1)c(=O)c(C(=O)O)cn2[C@H](CO)C(C)C` [Example 20K, (S)-6-(3,4-dichlorobenzylamino)-1-(1-hydroxy-3-methylbutan-2-yl)-7-methoxy-4-oxo-1,4-dihydro-1,8-naphthyridine-3-carboxylic acid] yielded a pEC50 of less than 7.00. `COCCNc1nc2c(cc1Cc1cccc(Cl)c1F)c(=O)c(C(=O)O)cn2[C@H](CO)C(C)(C)C` [Example 2T] showed a pEC50 greater than 8.00. Work on `COc1nc2c(cc1CCc1ccc(F)cc1F)c(=O)c(C(=O)O)cn2[C@H](CO)C(C)C` [Example 19, (S)-6-(2,4-difluorophenethyl)-1-(1-hydroxy-3-methylbutan-2-yl)-7-methoxy-4-oxo-1,4-dihydro-1,8-naphthyridine-3-carboxylic acid] yielded a pEC50 of less than 7.00. For `CC(C)(C)[C@@H](CO)n1cc(C(=O)O)c(=O)c2cc(Cc3cccc(Cl)c3F)c(NCc3ccccn3)nc21` [Example 2FF], the pEC50 was greater than 8.00. Compound `CC(C)(C)[C@@H](CO)n1cc(C(=O)O)c(=O)c2cc(NCc3c(F)cc(F)cc3F)c(N3CCOCC3)nc21` [Example 27E, (S)-1-(1-hydroxy-3,3-dimethylbutan-2-yl)-7-morpholino-4-oxo-6-(2,4,6-trifluorobenzylamino)-1,4-dihydro-1,8-naphthyridine-3-carboxylic acid] has a pEC50 of 7.00 to 8.00. `COc1nc2c(cc1-c1ccc(F)cc1)c(=O)c(C(=O)O)cn2[C@H](CO)C(C)C` [Example 17A] showed a pEC50 of less than 7.00. Compound `COc1nc2c(cc1NC1CCCc3ccccc31)c(=O)c(C(=O)O)cn2[C@H](CO)C(C)C` (stereo partly drawn) [Example 20JJ, 1-((S)-1-hydroxy-3-methylbutan-2-yl)-7-methoxy-4-oxo-6-(1,2,3,4-tetrahydronaphthalen-1-ylamino)-1,4-dihydro-1,8-naphthyridine-3-carboxylic acid] has a pEC50 of less than 7.00. With `CCCn1cc(C(=O)OC(=O)c2ccccc2)c(=O)c2c(NC(C)=O)nc(SC)nc21` [Example 7D] the pEC50 was less than 7.00. For `CC(C)(C)[C@@H](CO)n1cc(C(=O)NCCCn2ccnc2)c(=O)c2cc(Cc3cccc(Cl)c3F)c(NCCCn3ccnc3)nc21` [Example 2HH], the pEC50 was less than 7.00. `CC(C)(C)[C@@H](CO)n1cc(C(=O)O)c(=O)c2cc(Cc3cccc(Cl)c3F)c(F)nc21` [Example 2JJ] showed a pEC50 of 7.00 to 8.00. Work on `COc1nc2c(cc1Cc1cccc(Cl)c1F)c(=O)c(C(=O)NCCO)cn2[C@H](CO)C(C)C` [Example 2II] yielded a pEC50 of less than 7.00. `CC(C)(C)[C@@H](CO)n1cc(C(=O)O)c(=O)c2cc(Cc3cccc(Cl)c3F)c(N)nc21` [Example 3A, (S)-7-Amino-6-(3-chloro-2-fluorobenzyl)-1-(1-hydroxy-3,3-dimethylbutan-2-yl)-4-oxo-1,4-dihydro-1,8-naphthyridine-3-carboxylic acid] was tested, and the pEC50 was greater than 8.00. `COc1nc2c(cc1Nc1ccc(F)c(Cl)c1)c(=O)c(C(=O)O)cn2[C@H](CO)C(C)C` [Example 20RR, (S)-6-(3-chloro-4-fluorophenylamino)-1-(1-hydroxy-3-methylbutan-2-yl)-7-methoxy-4-oxo-1,4-dihydro-1,8-naphthyridine-3-carboxylic acid] was tested, and the pEC50 was less than 7.00. `COc1nc2c(cc1NCCc1ccccc1F)c(=O)c(C(=O)O)cn2[C@H](CO)C(C)C` [Example 20S, (S)-6-(2-fluorophenethylamino)-1-(1-hydroxy-3-methylbutan-2-yl)-7-methoxy-4-oxo-1,4-dihydro-1,8-naphthyridine-3-carboxylic acid] was tested, and the pEC50 was less than 7.00. Work on `CC(C)[C@@H](CO)n1cc(C(=O)O)c(=O)c2cc(NCc3ccc(F)cc3)ccc21` [Example 22A, (S)-6-(4-fluorobenzylamino)-1-(1-hydroxy-3-methylbutan-2-yl)-4-oxo-1,4-dihydroquinoline-3-carboxylic acid] yielded a pEC50 of less than 7.00.

Same assay, conditions: Human immunodeficiency virus 1, HeLa, HIV-1 luciferase reporter, HeLa cells
Work on `COc1nc2c(cc1COc1ccc(F)cc1F)c(=O)c(C(=O)O)cn2[C@H](CO)C(C)C` [Example 14B] yielded a pEC50 of less than 5.60.

Same assay, conditions: Human immunodeficiency virus 1, read-out: Rank, rank of EC50, HIV-1 luciferase reporter
In the case of `COc1nc2c(cc1COc1ccc(F)cc1F)c(=O)c(C(=O)O)cn2[C@H](CO)C(C)C` [Example 14B], the pEC50 was less than 7.00.
